Paper PMC3914206

How the values were obtained:
[1] = target: T1, panel of 442 kinases (Homo sapiens, UniProt P00533, DEL746-750); type: binding; settings: Compound Concentration 10 µM
T1 construct: purchased KINOMEscan
Source text: (§1) We assessed the selectivity of members of this scaffold using the KINOMEscan methodology across a near comprehensive panel of 442 kinases [[18,27]].

[2] = target: T2, panel of 442 kinases (Homo sapiens, UniProt Q9NRM7); type: binding; settings: Compound Concentration 10 µM
T2 construct: purchased KINOMEscan
T2 sequence (Q9NRM7 1-1088): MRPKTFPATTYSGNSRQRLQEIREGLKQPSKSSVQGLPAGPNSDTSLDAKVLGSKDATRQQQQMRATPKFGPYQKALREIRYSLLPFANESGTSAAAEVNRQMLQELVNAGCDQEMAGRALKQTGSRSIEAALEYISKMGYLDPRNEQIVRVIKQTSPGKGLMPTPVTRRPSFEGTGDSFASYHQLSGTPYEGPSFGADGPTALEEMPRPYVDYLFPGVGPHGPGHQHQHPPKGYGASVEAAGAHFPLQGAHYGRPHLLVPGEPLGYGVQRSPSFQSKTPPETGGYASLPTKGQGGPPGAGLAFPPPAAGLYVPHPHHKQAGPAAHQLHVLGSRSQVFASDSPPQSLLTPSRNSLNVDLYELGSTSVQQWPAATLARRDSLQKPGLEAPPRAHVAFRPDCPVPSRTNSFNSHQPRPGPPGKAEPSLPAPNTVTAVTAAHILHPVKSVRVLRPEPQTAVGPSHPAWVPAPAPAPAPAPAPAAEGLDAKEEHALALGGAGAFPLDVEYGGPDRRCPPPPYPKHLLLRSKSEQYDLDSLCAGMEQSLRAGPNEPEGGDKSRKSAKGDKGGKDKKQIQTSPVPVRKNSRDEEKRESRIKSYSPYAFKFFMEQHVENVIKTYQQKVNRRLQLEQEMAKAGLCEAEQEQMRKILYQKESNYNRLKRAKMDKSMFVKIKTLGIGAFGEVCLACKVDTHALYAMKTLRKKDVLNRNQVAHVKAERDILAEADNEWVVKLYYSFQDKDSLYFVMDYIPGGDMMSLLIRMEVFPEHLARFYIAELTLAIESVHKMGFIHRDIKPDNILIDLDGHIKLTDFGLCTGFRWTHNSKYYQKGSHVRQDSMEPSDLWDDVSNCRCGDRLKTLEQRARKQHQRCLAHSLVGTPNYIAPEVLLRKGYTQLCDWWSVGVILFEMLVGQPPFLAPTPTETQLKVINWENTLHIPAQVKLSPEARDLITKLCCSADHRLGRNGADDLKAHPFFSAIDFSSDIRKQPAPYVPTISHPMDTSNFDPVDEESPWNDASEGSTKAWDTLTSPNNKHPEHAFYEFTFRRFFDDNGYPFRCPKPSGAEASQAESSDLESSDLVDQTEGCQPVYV
Source text: as §1

T1 sequence (P00533 with tags, fused parts or gaps DEL746-750): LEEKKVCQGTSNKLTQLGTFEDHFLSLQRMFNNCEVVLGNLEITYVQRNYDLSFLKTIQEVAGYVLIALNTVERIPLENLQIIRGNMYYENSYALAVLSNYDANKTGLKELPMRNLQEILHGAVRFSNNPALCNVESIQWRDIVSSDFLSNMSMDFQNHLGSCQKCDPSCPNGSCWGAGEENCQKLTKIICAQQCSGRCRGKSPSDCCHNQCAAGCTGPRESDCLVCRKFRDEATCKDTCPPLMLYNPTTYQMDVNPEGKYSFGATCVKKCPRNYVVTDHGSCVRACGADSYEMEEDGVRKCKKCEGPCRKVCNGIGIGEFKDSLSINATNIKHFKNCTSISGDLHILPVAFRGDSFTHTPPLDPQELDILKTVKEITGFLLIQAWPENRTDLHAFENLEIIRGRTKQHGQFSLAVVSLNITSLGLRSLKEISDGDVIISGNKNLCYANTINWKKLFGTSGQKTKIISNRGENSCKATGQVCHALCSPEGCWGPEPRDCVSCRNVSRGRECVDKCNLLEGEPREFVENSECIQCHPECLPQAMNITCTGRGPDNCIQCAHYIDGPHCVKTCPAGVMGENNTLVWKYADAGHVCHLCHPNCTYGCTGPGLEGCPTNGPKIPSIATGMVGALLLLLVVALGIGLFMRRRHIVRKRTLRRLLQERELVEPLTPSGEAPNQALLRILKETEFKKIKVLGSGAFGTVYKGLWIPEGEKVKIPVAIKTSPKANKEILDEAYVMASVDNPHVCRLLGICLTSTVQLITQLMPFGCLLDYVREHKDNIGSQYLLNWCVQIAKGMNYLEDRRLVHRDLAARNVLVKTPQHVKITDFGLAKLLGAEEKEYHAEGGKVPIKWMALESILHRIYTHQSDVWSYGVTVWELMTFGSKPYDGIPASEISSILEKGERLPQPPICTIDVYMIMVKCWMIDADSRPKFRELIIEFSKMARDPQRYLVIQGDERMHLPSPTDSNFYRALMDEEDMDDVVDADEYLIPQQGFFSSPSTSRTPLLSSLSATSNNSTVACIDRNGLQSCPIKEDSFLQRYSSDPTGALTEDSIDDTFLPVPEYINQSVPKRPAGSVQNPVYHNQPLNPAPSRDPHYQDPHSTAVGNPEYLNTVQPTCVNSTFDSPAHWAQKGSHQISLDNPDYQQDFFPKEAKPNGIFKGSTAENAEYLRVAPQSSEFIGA

Compound	KINOMEscan: EGFR(E746-A750del) [1]	KINOMEscan: LATS2 [2]
COc1cc(C(=O)N2CCC(N3CCN(C)CC3)CC2)ccc1Nc1ncc2c(n1)N(C)c1ccccc1C(=O)N2C [15 (LRRK2-IN-1)]	72	95
COc1cc(C(=O)N2CCC(N3CCN(C)CC3)CC2)ccc1Nc1ncc2c(n1)N(C1CCCC1)c1ccccc1C(=O)N2C [Compound 25, 11-cyclopentyl-2-((2-methoxy-4-(4-(4-methylpiperazin-1-yl)piperidine-1-carbonyl)phenyl)amino)-5-methyl-5H-benzo[e]pyrimido[5,4-b][1,4]diazepin-6(11H)-one]	80	92
CCOc1cc(C(=O)N2CCC(N3CCN(C)CC3)CC2)ccc1Nc1ncc2c(n1)N(C1CCCC1)c1ccccc1C(=O)N2C [Compound 26]	100	93
